# Data published in patent publication US11815509B2, “Cell line and uses thereof” (priority 2017, dated 2023).
# How the values were obtained:
# SenzaCell cells = settings: 24 h stimulation, compared between the two chemicals, FIG. 6
# MUTZ-3 cells = settings: 24 h stimulation, compared between the two chemicals, FIG. 6
compound,measurement,setting,value
C=CC(=O)OCCO [2-hydroxyethylacrylate],SVM prediction value (prediction pattern),SenzaCell cells,higher prediction value than DNCB
same,SVM prediction value (prediction pattern),MUTZ-3 cells,higher prediction value than DNCB
